Data as given in ChEMBL document CHEMBL1201862, “PubChem BioAssay data set” (2004).
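These data come from cells grown in 96-well plates and exposed to compound for 48 hours at five concentrations. GI50 marks 50% less growth.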 Activity calls are given as the source filed them. Cut-off read from the data, not from the text of the source: active = GI50 up to about 1.1 µM and inactive = higher.

Tests used:
Assay in all cases: DTP human tumour cell line panel, 48 h
786-0 = system: 786-0
A549 = system: A549
ACHN = system: ACHN
BT-549 = system: BT-549
CAKI-1 = system: CAKI-1
CCRF-CEM = system: CCRF-CEM
COLO 205 = system: COLO 205
DU-145 = system: DU-145
EKVX = system: EKVX
HCT-116 = system: HCT-116
HCT-15 = system: HCT-15
HL-60 = system: HL-60
HOP-62 = system: HOP-62
HOP-92 = system: HOP-92
HT-29 = system: HT-29
Hs-578T = system: Hs-578T
IGROV-1 = system: IGROV-1
K562 = system: K562
KM12 = system: KM12
LOX IMVI = system: LOX IMVI
M14 = system: M14
MCF7 = system: MCF7
MDA-MB-231 = system: MDA-MB-231
MDA-MB-435 = system: MDA-MB-435
MDA-N = system: MDA-N
MOLT-4 = system: MOLT-4
NCI-H226 = system: NCI-H226
NCI-H23 = system: NCI-H23
NCI-H460 = system: NCI-H460
NCI-H522 = system: NCI-H522
NCI/ADR-RES = system: NCI/ADR-RES
OVCAR-3 = system: OVCAR-3
OVCAR-4 = system: OVCAR-4
OVCAR-5 = system: OVCAR-5
OVCAR-8 = system: OVCAR-8
PC-3 = system: PC-3
RPMI-8226 = system: RPMI-8226
RXF 393 = system: RXF 393
SF-268 = system: SF-268
SF-295 = system: SF-295
SF-539 = system: SF-539
SK-MEL-28 = system: SK-MEL-28
SK-MEL-2 = system: SK-MEL-2
SK-MEL-5 = system: SK-MEL-5
SK-OV-3 = system: SK-OV-3
SN12C = system: SN12C
SNB-19 = system: SNB-19
SNB-75 = system: SNB-75
SR = system: SR
SW-620 = system: SW-620
T47D = system: T47D
TK-10 = system: TK-10
U-251 = system: U-251
UACC-257 = system: UACC-257
UACC-62 = system: UACC-62
UO-31 = system: UO-31
A498 = system: A498
Malme-3M = system: Malme-3M

CC(=O)Oc1c(OC(C)C)c(C)c(O[Si](C(C)C)(C(C)C)C(C)C)c2[nH]c3ccccc3c12
GI50 (786-0): > 100 µM (inactive) | GI50 (A549): > 82.2 µM (inactive) | GI50 (ACHN): > 100 µM (inactive) | GI50 (BT-549): > 100 µM (inactive) | GI50 (CAKI-1): 67.1 µM (inactive) | GI50 (CCRF-CEM): 60.1 µM (inactive) | GI50 (COLO 205): > 100 µM (inactive) | GI50 (DU-145): > 100 µM (inactive) | GI50 (EKVX): > 45 µM (inactive) | GI50 (HCT-116): 63.4 µM (inactive) | GI50 (HCT-15): > 75.7 µM | GI50 (HL-60): 2.62 µM (inactive) | GI50 (HOP-62): > 100 µM (inactive) | GI50 (HOP-92): > 100 µM (inactive) | GI50 (HT-29): 38.5 µM (inactive) | GI50 (Hs-578T): > 100 µM (inactive) | GI50 (IGROV-1): > 100 µM (inactive) | GI50 (K562): > 100 µM (inactive) | GI50 (KM12): 67.3 µM (inactive) | GI50 (LOX IMVI): > 100 µM (inactive) | GI50 (M14): > 94.6 µM (inactive) | GI50 (MCF7): 56.6 µM (inactive) | GI50 (MDA-MB-231): > 88.3 µM (inactive) | GI50 (MDA-MB-435): > 42.2 µM (inactive) | GI50 (MDA-N): > 100 µM (inactive) | GI50 (MOLT-4): 12 µM (inactive) | GI50 (NCI-H226): > 100 µM (inactive) | GI50 (NCI-H23): 33.6 µM (inactive) | GI50 (NCI-H460): > 100 µM (inactive) | GI50 (NCI-H522): 34.6 µM (inactive) | GI50 (NCI/ADR-RES): > 100 µM (inactive) | GI50 (OVCAR-3): > 100 µM (inactive) | GI50 (OVCAR-4): 57.8 µM (inactive) | GI50 (OVCAR-5): > 100 µM (inactive) | GI50 (OVCAR-8): > 100 µM (inactive) | GI50 (PC-3): 37.7 µM (inactive) | GI50 (RPMI-8226): 71.1 µM (inactive) | GI50 (RXF 393): 20.2 µM (inactive) | GI50 (SF-268): > 100 µM (inactive) | GI50 (SF-295): 76.2 µM (inactive) | GI50 (SF-539): > 100 µM (inactive) | GI50 (SK-MEL-28): > 100 µM (inactive) | GI50 (SK-MEL-2): > 100 µM (inactive) | GI50 (SK-MEL-5): > 100 µM (inactive) | GI50 (SK-OV-3): > 100 µM (inactive) | GI50 (SN12C): > 69 µM (inactive) | GI50 (SNB-19): > 100 µM (inactive) | GI50 (SNB-75): > 100 µM (inactive) | GI50 (SR): 25.5 µM (inactive) | GI50 (SW-620): > 83.4 µM (inactive) | GI50 (T47D): 44.4 µM (inactive) | GI50 (TK-10): > 100 µM (inactive) | GI50 (U-251): 99.5 µM (inactive) | GI50 (UACC-257): > 62.4 µM (inactive) | GI50 (UACC-62): > 100 µM (inactive) | GI50 (UO-31): > 100 µM (inactive)

CCOc1ccccc1/C=C(/C#N)C(N)=O
GI50 (786-0): > 100 µM (inactive) | GI50 (A498): > 100 µM (inactive) | GI50 (A549): > 100 µM (inactive) | GI50 (ACHN): > 100 µM (inactive) | GI50 (BT-549): > 100 µM (inactive) | GI50 (CAKI-1): > 100 µM (inactive) | GI50 (CCRF-CEM): 10.3 µM (inactive) | GI50 (COLO 205): > 100 µM (inactive) | GI50 (DU-145): > 100 µM (inactive) | GI50 (EKVX): > 100 µM (inactive) | GI50 (HCT-116): 78.3 µM (inactive) | GI50 (HCT-15): 59 µM | GI50 (HL-60): 21.6 µM (inactive) | GI50 (HOP-62): > 100 µM (inactive) | GI50 (HOP-92): > 100 µM (inactive) | GI50 (HT-29): > 100 µM (inactive) | GI50 (Hs-578T): > 100 µM (inactive) | GI50 (IGROV-1): > 100 µM (inactive) | GI50 (K562): 36.2 µM (inactive) | GI50 (KM12): > 100 µM (inactive) | GI50 (LOX IMVI): > 100 µM (inactive) | GI50 (M14): > 100 µM (inactive) | GI50 (MCF7): 41.7 µM (inactive) | GI50 (MDA-MB-231): > 100 µM (inactive) | GI50 (MDA-MB-435): 18.2 µM (inactive) | GI50 (MDA-N): 18.7 µM (inactive) | GI50 (MOLT-4): 83.9 µM (inactive) | GI50 (Malme-3M): > 100 µM (inactive) | GI50 (NCI-H226): > 100 µM (inactive) | GI50 (NCI-H23): > 100 µM (inactive) | GI50 (NCI-H460): > 100 µM (inactive) | GI50 (NCI-H522): > 100 µM (inactive) | GI50 (NCI/ADR-RES): > 100 µM (inactive) | GI50 (OVCAR-3): > 100 µM (inactive) | GI50 (OVCAR-4): > 100 µM (inactive) | GI50 (OVCAR-5): > 100 µM (inactive) | GI50 (OVCAR-8): > 100 µM (inactive) | GI50 (PC-3): > 100 µM (inactive) | GI50 (RPMI-8226): > 100 µM (inactive) | GI50 (RXF 393): > 100 µM (inactive) | GI50 (SF-268): > 100 µM (inactive) | GI50 (SF-295): > 100 µM (inactive) | GI50 (SF-539): 70.6 µM (inactive) | GI50 (SK-MEL-28): > 100 µM (inactive) | GI50 (SK-MEL-2): > 100 µM (inactive) | GI50 (SK-MEL-5): 78.3 µM (inactive) | GI50 (SK-OV-3): > 100 µM (inactive) | GI50 (SN12C): > 100 µM (inactive) | GI50 (SNB-19): > 100 µM (inactive) | GI50 (SNB-75): > 100 µM (inactive) | GI50 (SR): 23.9 µM (inactive) | GI50 (SW-620): 60 µM (inactive) | GI50 (T47D): > 100 µM (inactive) | GI50 (TK-10): > 100 µM (inactive) | GI50 (U-251): > 100 µM (inactive) | GI50 (UACC-257): > 100 µM (inactive) | GI50 (UACC-62): 96.2 µM (inactive) | GI50 (UO-31): 85.3 µM (inactive)
